Legend:
[1] = Blood exposure in OD26749 bridging study; assay type: in vivo, nude mice; settings: nude, mouse, whole blood; 100 mg/kg PO bid (0 and 4 h) combination groups with 2 Gy whole body IR
[2] = Body weight in OE-19 xenograft studies; assay type: in vivo
Method: The OE-19 cell line xenograft model was used to evaluate the efficacy of Compounds (1) and (2) alone and in combination with IR. Two cycles of treatment were administered (Day 0 and Day 7) as performed in the OD26749 model above.

[3] = test system: ST-02-0004 primary GEJ tumor xenograft; assay: ST-02-0004 primary GEJ tumor xenograft efficacy with focused IR; assay type: in vivo
Method: The in vivo activities of Compounds (1) and (2) were compared in combination with focused beam IR in a primary gastric cancer subcutaneous xenograft model. In the ST 02 0004 model, focused IR was administered on three consecutive days alone and in combination with Compound (1) or Compound (2).
The anti-tumor activity of Compound (2) in combination with focused-beam IR and the standard of care agents, paclitaxel and carboplatin, was also evaluated in the ST 02 0004 model. Treatment with paclitaxel, carboplatin, and IR was administered once per week for three weeks alone or in combination with Compound (2).
(§1) In Tables 14 and 15, for example, PO bid (0, 4 h) indicates Compound (2) is administered twice (bid) at time point 0 and then 4 hours after; IR (0.25 h) qdx3 indicates radiation is administered 15 minutes (0.25 h) after the administration of Compound (2) (0 h), and once a day for 3 days (qdx3); q7dx2 indicates once a week for two weeks; qod indicates every other day twice (e.g., Day 1 and Day 3); and paclitaxel q7dx3 (−0.25 h), carboplatin q7dx3 (−0.25 h) indicates administration of paclitaxel and carboplatin 15 minutes prior to the administration of Compound (2), followed by additional administration of Compound (2) after 4 hours after the first administration of Compound (2).

[4] = test system: LU-01-0030 primary NSCLC subcutaneous xenograft; assay: LU-01-0030 primary NSCLC xenograft efficacy with focused IR; assay type: in vivo, mice
Method: (§2) The in vivo efficacies of Compounds (1) and (2) were evaluated alone and in combination with three consecutive days of focused IR in the primary LU-01-0030 NSCLC subcutaneous xenograft model. The dose-dependent anti-tumor activity of Compound (2) alone and in combination with focused beam IR was evaluated in the LU-01-0030 model.
as §1

[5] = Body weight in OD26749 xenograft studies; assay type: in vivo, nude mice; settings: bridging study; Compound (1) PO 100 mg/kg bid (0, 4 h), 2 Gy ([…]) qdx3; Day 1
[6] = Body weight in LU-01-0030 xenograft studies; assay type: in vivo, mice
Method: as §2, with “LU-01-0030 model. […] Mice in the combination treatment groups were monitored (without treatment) for up to 90 days as some mice had no evidence of tumor burden.” for “LU-01-0030 model.”

[7] = test system: primary human tumors; assay: Primary tumor chemosensitivity assay (TCA), Cell Titer-Glo, Bliss; assay type: cell-based
Method: Primary human tumors tested in vitro may provide a better indicator of efficacy of DNA PK inhibition than immortalized cancer cell lines due to their increased heterogeneity and closer proximity to the patient tumor from which they were derived. […] Dissociated cells from mouse-passaged tumors were cultured for 6 days after combination exposure and then assessed for viability using the Cell Titer-Glo assay. The Bliss Additivity statistical model was used to determine the degree of synergy, additivity, or antagonism of each combination treatment.

[8] = test system: OD26749 primary NSCLC xenograft; assay: OD26749 primary NSCLC xenograft efficacy with whole body IR; assay type: in vivo, nude mice
Method: The in vivo efficacies of Compounds (1) and (2) in combination with whole body IR were examined in the OD26749 primary NSCLC (non-small cell lung cancer) and the OE-19 GEJ cell line xenograft models. In these studies, Compounds (1) and (2) were formulated with 16% captisol/1% PVP/1% HPMC E5 pH2.
The in vivo efficacy of Compound (1) was evaluated in the primary OD26749 NSCLC subcutaneous xenograft model. […] […] Compound (1) was administered PO (tid at 0, 3, and 7 h) at 100 mg/kg alone or with a single 2 Gy dose of whole body IR at 3.25 h. […] Compound (1) in combination with 2 Gy whole body IR induced significant tumor regression (% T/Ti of −75; P<0.01) compared to IR alone.
The efficacies of Compounds (1) and (2) in combination with whole body IR (2 Gy) were evaluated in the OD26749 primary NSCLC xenograft model at a Compound ([…]) and Compound (2) dose levels of 50 mg/kg and 100 mg/kg PO bid (0 and 4 h). Two cycles of whole body IR (2 Gy) were given 15 min after the first compound administration (0.25 hour). Control animals were administered vehicle PO bid (0 and 4 h). […]
as §1

AUC [1]: 65800 ng·h/mL
Structure (SMILES): CNC(=O)c1ccnc2c([C@H](C)CNc3cc(-c4cnc(C)nc4)ncn3)cccc12 [Compound (1), (S)-N-methyl-8-(1-((2′-methyl-[4,5′-bipyrimidin]-6-yl)amino)propan-2-yl)quinoline-4-carboxamide]
Max. body weight loss (%) ([2]; PO 100 mg/kg bid (0, 4 h) qd7x2, 2 Gy IR qd7x2 ([…]), Day 1): −3.50%
Max. body weight loss (%) ([2]; PO 100 mg/kg bid (0, 4 h) qd7x 2, no IR, Day 8): −1.70%
% T/Ti (Day 34) ([3]; Compound (1) PO 100 mg/kg bid (0, 4 h) qdx3, 2 Gy IR ([…]) focused): −2.8%
% T/C (Day 34) ([3]; Compound (1) PO 100 mg/kg qdx3, no IR): 95.6%
% T/Ti (Day 31) ([4]; PO 10 mg/kg bid (0, 4 h) qdx3, 2 Gy IR ([…])): −5.3%
% T/Ti (Day 24) ([4]; PO 10 mg/kg bid (0, 4 h) qdx3, 2 Gy IR qdx3 ([…])): −29.8%
% T/Ti (Day 24) ([4]; PO 25 mg/kg bid (0, 4 h) qdx3, 2 Gy IR qdx3 ([…])): −75.2%
% T/C (Day 31) ([4]; PO 50 mg/kg bid (0, 4 h) qdx1, 2 Gy IR ([…])): 7.2%
% T/Ti (Day 31) ([4]; PO 50 mg/kg bid (0, 4 h) qdx2, 2 Gy IR ([…])): −1.7%
% T/Ti (Day 31) ([4]; PO 50 mg/kg bid (0, 4 h) qdx3, 2 Gy IR ([…])): −14.1%
% T/Ti (Day 24) ([4]; PO 50 mg/kg bid (0, 4 h) qdx3, 2 Gy IR qdx3 ([…])): −87.6%
% T/Ti (Day 24) ([4]; PO 50 mg/kg bid (0, 4 h) qodx2, 2 Gy IR qdx3 ([…])): −79.9%
% T/C (Day 31) ([4]; PO 50 mg/kg qdx3, 2 Gy IR ([…])): 4.5%
% T/Ti (Day 30) ([4]; PO 100 mg/kg bid (0, 4 h) qdx3, 2 Gy IR ([…]) qdx3): −85.6%
% T/Ti (Day 30) ([4]; PO 100 mg/kg tid (0, 3, 7 h) qdx3, 2 Gy IR ([…]) qdx3): −90.6%
% T/Ti (Day 30) ([4]; PO 100 mg/kg tid (0, 3, 7 h) qdx5, 2 Gy IR ([…]) qdx3): −91.6%
% T/C (Day 30) ([4]; PO 100 mg/kg tid (0, 3, 7 h) qdx5, no IR): 79.1%
% T/Ti (Day 27) ([4]; first Day 27 study, PO 25 mg/kg bid (0, 4 h) qdx3, 2 Gy ([…]) IR qdx3): −80.3%
% T/Ti (Day 27) ([4]; first Day 27 study, PO 50 mg/kg bid (0, 4 h) qdx3, 2 Gy ([…]) IR qdx3): −87.8%
% T/Ti (Day 27) ([4]; first Day 27 study, PO 100 mg/kg bid (0, 4 h) qdx3, 2 Gy ([…]) IR qdx3): −90.1%
% T/Ti (Day 27) ([4]; first Day 27 study, PO 100 mg/kg qdx3, 2 Gy ([…]) IR qdx3): −76.5%
% T/Ti (Day 27) ([4]; second Day 27 study, PO 10 mg/kg bid (0, 4 h) qdx3, 2 Gy ([…]) IR qdx3): −80.3%
% T/Ti (Day 27) ([4]; second Day 27 study, PO 25 mg/kg bid (0, 4 h) qdx3, 2 Gy ([…]) IR qdx3): −87.8%
% T/Ti (Day 27) ([4]; second Day 27 study, PO 50 mg/kg bid (0, 4 h) qdx2, 2 Gy ([…]) IR qdx3): −90.1%
% T/Ti (Day 27) ([4]; second Day 27 study, PO 50 mg/kg bid (0, 4 h) qdx3, 2 Gy ([…]) IR qdx3): −76.5%
Max. body wt loss (%) [5]: −2.40%
Max. body wt loss (%) ([6]; Day 24 study, PO 10 mg/kg bid (0, 4 h) qdx3, 2 Gy IR qdx3 ([…]), Day 4): −1.46%
Max. body wt loss (%) ([6]; Day 24 study, PO 25 mg/kg bid (0, 4 h) qdx3, 2 Gy IR qdx3 ([…]), Day 4): −2.03%
Max. body wt loss (%) ([6]; Day 24 study, PO 50 mg/kg bid (0, 4 h) qdx3, 2 Gy IR qdx3 ([…]), Day 4): −1.19%
Max. body wt loss (%) ([6]; Day 24 study, PO 50 mg/kg bid (0, 4 h) qodx2, 2 Gy IR qdx3 ([…]), Day 4): −1.59%
Max. body wt loss (%) ([6]; Day 30 study, PO 100 mg/kg bid (0, 4 h) qdx3, 2 Gy IR ([…]) qdx3, Day 4): −1.42%
Max. body wt loss (%) ([6]; Day 30 study, PO 100 mg/kg tid (0, 3, 7 h) qdx3, 2 Gy IR ([…]) qdx3, Day 4): −1.58%
Max. body wt loss (%) ([6]; Day 30 study, PO 100 mg/kg tid (0, 3, 7 h) qdx5, 2 Gy IR ([…]) qdx3, Day 4): −1.68%
Max. body wt loss (%) ([6]; Day 30 study, PO 100 mg/kg tid (0, 3, 7 h) qdx5, no IR, Day 6): −0.63%
Max. body wt loss (%) ([6]; Day 31 study, PO 10 mg/kg bid (0, 4 h) qdx3, 2 Gy IR ([…]), Day 3): −3.33%
Max. body wt loss (%) ([6]; Day 31 study, PO 50 mg/kg bid (0, 4 h) qdx1, 2 Gy IR ([…]), Day 1): −0.59%
Max. body wt loss (%) ([6]; Day 31 study, PO 50 mg/kg bid (0, 4 h) qdx2, 2 Gy IR ([…]), Day 1): −2.11%
Max. body wt loss (%) ([6]; Day 31 study, PO 50 mg/kg bid (0, 4 h) qdx3, 2 Gy IR ([…]), Day 3): −0.94%
Max. body wt loss (%) ([6]; Day 31 study, PO 50 mg/kg qdx3, 2 Gy IR ([…]), Day 1): −2.07%
Max. body wt loss (%) ([6]; first Day 27 study, PO 25 mg/kg bid (0, 4 h) qdx3, 2 Gy ([…]) IR qdx3, Day 2): −5.81%
Max. body wt loss (%) ([6]; first Day 27 study, PO 50 mg/kg bid (0, 4 h) qdx3, 2 Gy ([…]) IR qdx3, Day 3): −5.70%
Max. body wt loss (%) ([6]; first Day 27 study, PO 100 mg/kg bid (0, 4 h) qdx3, 2 Gy ([…]) IR qdx3, Day 3): −2.87%
Max. body wt loss (%) ([6]; first Day 27 study, PO 100 mg/kg qdx3, 2 Gy ([…]) IR qdx3, Day 2): −3.68%
Max. body wt loss (%) ([6]; second Day 27 study, PO 10 mg/kg bid (0, 4 h) qdx3, 2 Gy ([…]) IR qdx3, Day 2): −5.81%
Max. body wt loss (%) ([6]; second Day 27 study, PO 25 mg/kg bid (0, 4 h) qdx3, 2 Gy ([…]) IR qdx3, Day 3): −5.70%
Max. body wt loss (%) ([6]; second Day 27 study, PO 50 mg/kg bid (0, 4 h) qdx2, 2 Gy ([…]) IR qdx3, Day 3): −2.87%
Max. body wt loss (%) ([6]; second Day 27 study, PO 50 mg/kg bid (0, 4 h) qdx3, 2 Gy ([…]) IR qdx3, Day 2): −3.68%
tumors additive or synergistic / tumors tested ([7]; Compound (1) (10× and 30× IC50) with bleomycin or radiation): 29/29
tumors with additivity / tumors tested ([7]; Compound (1) with 5-FU): 5/5
tumors with strong synergy / tumors tested ([7]; Compound (1) with bleomycin): 9/29
tumors with synergy or additivity / tumors tested ([7]; Compound (1) with carboplatin): 5/5
tumors with antagonism ([7]; Compound (1) with cisplatin): one tumor showed antagonism
tumors with synergy or additivity / tumors tested ([7]; Compound (1) with cisplatin): 9/10
tumors with additivity / tumors tested ([7]; Compound (1) with doxorubicin): 1/1
tumors with strong synergy / tumors tested ([7]; Compound (1) with etoposide): 4/4
tumors with additivity / tumors tested ([7]; Compound (1) with gemcitabine): 2/4
tumors with antagonism / tumors tested ([7]; Compound (1) with gemcitabine): 2/4
tumors with additivity / tumors tested ([7]; Compound (1) with paclitaxel): 1/5
tumors with antagonism / tumors tested ([7]; Compound (1) with paclitaxel): 1/5
tumors with strong synergy / tumors tested ([7]; Compound (1) with radiation): 3/8
time to tumor doubling (TTD) ([8]; Compound (1) single agent group, 100 mg/kg tid, twice one week apart): 2 to 3 days
% T/C (Day 29) ([8]; PO 50 mg/kg bid (0, 4 h), 2 Gy IR ([…]) q7dx2): 11.7%
% T/Ti (Day 29) ([8]; PO 100 mg/kg bid (0, 4 h), 2 Gy IR ([…]) q7dx2): −3.1%
% T/Ti (Day 16) ([8]; PO 100 mg/kg tid (0, 3, 7 h) q7dx2, 2 Gy q7dx2 (3.25 h) whole body IR): −75%
% T/C (Day 16) ([8]; PO 100 mg/kg tid (0, 3, 7 h) q7dx2, no IR): 74%
time to tumor doubling (TTD) ([8]; combination group: 100 mg/kg tid with 2 Gy whole body IR, given twice one week apart): 33.4 days
